PubChem BioAssay (NCI)
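Five concentrations, 48 hours, 96-well plates. The concentration for 50% growth inhibition is given as GI50. At the TGI there is no net growth.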

What was measured:
Assay in all cases: inhibition of tumour cell growth, NCI panel, 48 h
SF-268 CNS = tested on: SF-268 CNS
EKVX NSCLC = tested on: EKVX NSCLC
OVCAR-3 ovarian = tested on: OVCAR-3 ovarian
MCF7 breast = tested on: MCF7 breast
OVCAR-4 ovarian = tested on: OVCAR-4 ovarian
NCI/ADR-RES ovarian = tested on: NCI/ADR-RES ovarian
K-562 leukemia = tested on: K-562 leukemia
COLO 205 colon = tested on: COLO 205 colon
TK-10 renal = tested on: TK-10 renal
PC-3 prostate = tested on: PC-3 prostate
SF-295 CNS = tested on: SF-295 CNS
HT29 colon = tested on: HT29 colon
BT-549 breast = tested on: BT-549 breast
NCI-H460 lung = tested on: NCI-H460 lung
SK-MEL-5 melanoma = tested on: SK-MEL-5 melanoma
IGROV1 ovarian = tested on: IGROV1 ovarian
OVCAR-8 ovarian = tested on: OVCAR-8 ovarian
NCI-H23 lung = tested on: NCI-H23 lung
HS 578T breast = tested on: HS 578T breast
HCC-2998 colon = tested on: HCC-2998 colon
DU-145 prostate = tested on: DU-145 prostate
SN12C renal = tested on: SN12C renal
786-0 renal = tested on: 786-0 renal
HCT-116 colon = tested on: HCT-116 colon
NCI-H226 lung = tested on: NCI-H226 lung
CAKI-1 renal = tested on: CAKI-1 renal
UO-31 renal = tested on: UO-31 renal
MDA-MB-231 breast = tested on: MDA-MB-231 breast
UACC-62 melanoma = tested on: UACC-62 melanoma
RPMI-8226 leukemia = tested on: RPMI-8226 leukemia
SK-OV-3 ovarian = tested on: SK-OV-3 ovarian
SW-620 colon = tested on: SW-620 colon
HCT-15 colon = tested on: HCT-15 colon
SF-539 CNS = tested on: SF-539 CNS
A549 NSCLC = tested on: A549 NSCLC
MDA-MB-435 = tested on: MDA-MB-435
HOP-92 NSCLC = tested on: HOP-92 NSCLC
U251 CNS = tested on: U251 CNS
ACHN renal = tested on: ACHN renal
SNB-19 CNS = tested on: SNB-19 CNS
OVCAR-5 ovarian = tested on: OVCAR-5 ovarian
UACC-257 melanoma = tested on: UACC-257 melanoma
MOLT-4 leukemia = tested on: MOLT-4 leukemia
LOX IMVI melanoma = tested on: LOX IMVI melanoma
KM12 colon = tested on: KM12 colon
A498 renal = tested on: A498 renal
SNB-75 CNS = tested on: SNB-75 CNS
SR leukemia = tested on: SR leukemia
HL-60(TB) leukemia = tested on: HL-60(TB) leukemia
RXF 393 renal = tested on: RXF 393 renal
SK-MEL-28 melanoma = tested on: SK-MEL-28 melanoma
CCRF-CEM leukemia = tested on: CCRF-CEM leukemia
HOP-62 NSCLC = tested on: HOP-62 NSCLC
NCI-H522 lung = tested on: NCI-H522 lung
MALME-3M melanoma = tested on: MALME-3M melanoma
SK-MEL-2 melanoma = tested on: SK-MEL-2 melanoma
T-47D breast = tested on: T-47D breast
M14 melanoma = tested on: M14 melanoma

## COc1cc(/C=N/Nc2ncnc3[nH]ncc23)ccc1O
SF-268 CNS
  GI50: 21.4 µM
  TGI: > 25 µM
EKVX NSCLC
  GI50: > 23.2 µM
  TGI: > 25 µM
OVCAR-3 ovarian
  GI50: > 22.7 µM
  TGI: > 25 µM
MCF7 breast
  GI50: 11.4 µM
  TGI: > 25 µM
OVCAR-4 ovarian
  GI50: > 25 µM
  TGI: > 25 µM
NCI/ADR-RES ovarian
  GI50: > 25 µM
  TGI: > 25 µM
K-562 leukemia
  GI50: 9.94 µM
  TGI: > 25 µM
COLO 205 colon
  GI50: > 25 µM
  TGI: > 25 µM
TK-10 renal
  GI50: 9.15 µM
  TGI: > 22.1 µM
PC-3 prostate
  GI50: > 20.6 µM
  TGI: > 25 µM
SF-295 CNS
  GI50: 18.6 µM
  TGI: > 25 µM
HT29 colon
  GI50: 12.6 µM
  TGI: > 25 µM
BT-549 breast
  GI50: > 23.6 µM
  TGI: > 25 µM
NCI-H460 lung
  GI50: 24.7 µM
  TGI: > 25 µM
SK-MEL-5 melanoma
  GI50: 17.5 µM
  TGI: > 25 µM
IGROV1 ovarian
  GI50: 8.97 µM
  TGI: > 25 µM
OVCAR-8 ovarian
  GI50: > 25 µM
  TGI: > 25 µM
NCI-H23 lung
  GI50: > 21.7 µM
  TGI: > 25 µM
HS 578T breast
  GI50: 6.53 µM
  TGI: > 20.5 µM
HCC-2998 colon
  GI50: > 25 µM
  TGI: > 25 µM
DU-145 prostate
  GI50: > 23.9 µM
  TGI: > 25 µM
SN12C renal
  GI50: 13.6 µM
  TGI: > 25 µM
786-0 renal
  GI50: 11.8 µM
  TGI: > 25 µM
HCT-116 colon
  GI50: 19.6 µM
  TGI: > 25 µM
NCI-H226 lung
  GI50: > 25 µM
  TGI: > 25 µM
CAKI-1 renal
  GI50: 6.93 µM
  TGI: > 25 µM
UO-31 renal
  GI50: 5.96 µM
  TGI: > 25 µM
MDA-MB-231 breast
  GI50: > 20.1 µM
  TGI: > 25 µM
UACC-62 melanoma
  GI50: 11.3 µM
  TGI: > 25 µM
RPMI-8226 leukemia
  GI50: > 25 µM
  TGI: > 25 µM
SK-OV-3 ovarian
  GI50: 17.9 µM
  TGI: > 25 µM
SW-620 colon
  GI50: > 25 µM
  TGI: > 25 µM
HCT-15 colon
  GI50: 24.6 µM
  TGI: > 25 µM
SF-539 CNS
  GI50: 7.78 µM
  TGI: > 21.8 µM
A549 NSCLC
  GI50: > 25 µM
  TGI: > 25 µM
MDA-MB-435
  GI50: 7.95 µM
  TGI: > 25 µM
HOP-92 NSCLC
  GI50: 6.77 µM
  TGI: > 22.1 µM
U251 CNS
  GI50: 24.7 µM
  TGI: > 25 µM
ACHN renal
  GI50: 8.01 µM
  TGI: > 25 µM
SNB-19 CNS
  GI50: > 25 µM
  TGI: > 25 µM
OVCAR-5 ovarian
  GI50: > 19.4 µM
  TGI: > 25 µM
UACC-257 melanoma
  GI50: > 21.8 µM
  TGI: > 25 µM
MOLT-4 leukemia
  GI50: 12.4 µM
  TGI: > 25 µM
LOX IMVI melanoma
  GI50: 9.26 µM
  TGI: > 25 µM
KM12 colon
  GI50: 12.6 µM
  TGI: > 25 µM
A498 renal
  GI50: 8.93 µM
  TGI: > 25 µM
SNB-75 CNS
  GI50: 4.83 µM
  TGI: > 16.6 µM
SR leukemia
  GI50: 13.1 µM
  TGI: > 25 µM
HL-60(TB) leukemia
  GI50: > 23.6 µM
  TGI: > 25 µM
RXF 393 renal
  GI50: 5.24 µM
  TGI: > 18.9 µM
SK-MEL-28 melanoma
  GI50: > 20.1 µM
  TGI: > 25 µM
CCRF-CEM leukemia
  GI50: 14.8 µM
  TGI: > 25 µM
HOP-62 NSCLC
  GI50: 19.8 µM
  TGI: > 25 µM
NCI-H522 lung
  GI50: 11 µM
  TGI: > 25 µM
MALME-3M melanoma
  GI50: 11.7 µM
  TGI: > 25 µM
SK-MEL-2 melanoma
  GI50: 6.53 µM
  TGI: 17.1 µM
T-47D breast
  GI50: 6.82 µM
  TGI: > 25 µM
M14 melanoma
  GI50: 15.7 µM
  TGI: > 25 µM

## CS(=O)(=O)Nc1cc(-c2ccc3ncnc(Nc4ccc5c(cnn5Cc5cccc(F)c5)c4)c3c2)cnc1Cl
SF-268 CNS
  GI50: 0.256 µM
  TGI: 2.07 µM
EKVX NSCLC
  GI50: 0.479 µM
  TGI: 4.7 µM
OVCAR-3 ovarian
  GI50: 0.293 µM
  TGI: 1.89 µM
MCF7 breast
  GI50: 0.201 µM
  TGI: 1.65 µM
OVCAR-4 ovarian
  GI50: 1.38 µM
  TGI: 6.51 µM
NCI/ADR-RES ovarian
  GI50: 5.8 µM
  TGI: > 78.4 µM
K-562 leukemia
  GI50: 0.913 µM
  TGI: > 100 µM
COLO 205 colon
  GI50: 0.759 µM
  TGI: 2.96 µM
TK-10 renal
  GI50: 0.277 µM
  TGI: 2.19 µM
PC-3 prostate
  GI50: 0.411 µM
  TGI: 2.6 µM
SF-295 CNS
  GI50: 0.811 µM
  TGI: 3 µM
HT29 colon
  GI50: 0.597 µM
  TGI: 5.42 µM
BT-549 breast
  GI50: 0.227 µM
  TGI: 1.05 µM
NCI-H460 lung
  GI50: 0.929 µM
  TGI: 9.45 µM
SK-MEL-5 melanoma
  GI50: 0.397 µM
  TGI: 1.44 µM
IGROV1 ovarian
  GI50: 0.17 µM
  TGI: 0.733 µM
OVCAR-8 ovarian
  GI50: 1.57 µM
  TGI: > 100 µM
NCI-H23 lung
  GI50: 0.648 µM
  TGI: 6.28 µM
HS 578T breast
  GI50: 0.111 µM
  TGI: 0.878 µM
HCC-2998 colon
  GI50: 0.829 µM
  TGI: 2.55 µM
DU-145 prostate
  GI50: 0.756 µM
  TGI: 11.2 µM
SN12C renal
  GI50: 0.421 µM
  TGI: 18.9 µM
786-0 renal
  GI50: 0.456 µM
  TGI: 5.41 µM
HCT-116 colon
  GI50: 0.48 µM
  TGI: 1.84 µM
NCI-H226 lung
  GI50: 1.11 µM
  TGI: 4.84 µM
CAKI-1 renal
  GI50: 0.359 µM
  TGI: 2.48 µM
UO-31 renal
  GI50: 1.04 µM
  TGI: 3.96 µM
MDA-MB-231 breast
  GI50: 0.586 µM
  TGI: 13.2 µM
UACC-62 melanoma
  GI50: 0.324 µM
  TGI: 1.69 µM
RPMI-8226 leukemia
  GI50: 0.396 µM
  TGI: 2.05 µM
SK-OV-3 ovarian
  GI50: 0.376 µM
  TGI: 2.27 µM
SW-620 colon
  GI50: 0.676 µM
  TGI: 6.61 µM
HCT-15 colon
  GI50: 1.11 µM
  TGI: 8.01 µM
SF-539 CNS
  GI50: 0.361 µM
  TGI: 1.75 µM
A549 NSCLC
  GI50: 1.56 µM
  TGI: 5.79 µM
MDA-MB-435
  GI50: 0.628 µM
  TGI: 2.3 µM
HOP-92 NSCLC
  GI50: 0.0562 µM
  TGI: 0.46 µM
U251 CNS
  GI50: 0.419 µM
  TGI: 3.17 µM
ACHN renal
  GI50: 1.63 µM
  TGI: 15.4 µM
SNB-19 CNS
  GI50: 0.575 µM
  TGI: 3.65 µM
OVCAR-5 ovarian
  GI50: 0.608 µM
  TGI: 7.3 µM
UACC-257 melanoma
  GI50: 0.812 µM
  TGI: 4.47 µM
MOLT-4 leukemia
  GI50: 0.318 µM
  TGI: 3.38 µM
LOX IMVI melanoma
  GI50: 0.4 µM
  TGI: 1.9 µM
KM12 colon
  GI50: 1.14 µM
  TGI: 4.25 µM
A498 renal
  GI50: 0.0717 µM
  TGI: 0.535 µM
SNB-75 CNS
  GI50: 0.0321 µM
  TGI: 0.457 µM
SR leukemia
  GI50: 0.507 µM
  TGI: > 100 µM
HL-60(TB) leukemia
  GI50: 0.283 µM
  TGI: 1.98 µM
RXF 393 renal
  GI50: 0.294 µM
  TGI: 1.45 µM
SK-MEL-28 melanoma
  GI50: 0.316 µM
  TGI: 1.86 µM
CCRF-CEM leukemia
  GI50: 0.301 µM
  TGI: > 100 µM
HOP-62 NSCLC
  GI50: 0.452 µM
  TGI: 7.95 µM
NCI-H522 lung
  GI50: 0.381 µM
  TGI: 2.74 µM
MALME-3M melanoma
  GI50: 0.201 µM
  TGI: 1.3 µM
SK-MEL-2 melanoma
  GI50: 0.275 µM
  TGI: 1.21 µM
T-47D breast
  GI50: 0.101 µM
  TGI: 0.922 µM
M14 melanoma
  GI50: 0.745 µM
  TGI: 2.5 µM
